Assay results taken from US20250154138A1, “Small Molecule IL-17A Modulators” (BeiGene, Ltd., priority 2022, published 2025).

Tests used:
[1] = system: IL-17-induced GROα secretion from HT-29 cells; assay: GROα release assay in human colorectal adenocarcinoma epithelial cell (HT-29, ELISA); type: cell-based; details: Homo sapiens, HT-29, 48 h, 10 ng/mL IL-17A, highest concentration 10 μM, read-out: Cellular assay HT29 cell/CXCL1 IC50
In short: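 IC50 values come from four-parameter fits of GROα levels, quantified by ELISA (450 nm, standard curve) in supernatants. Compounds, 4-fold serially diluted from 10 μM, were mixed 15 min with IL-17A (10 ng/mL final) before 48 h incubation with HT-29 cells at 37°C.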

[2] = molecular target: human IL-17A / human IL-17RA (Homo sapiens (Human), UniProt Q16552); assay: Human IL-17A biochemical assay (HTRF, blocking of IL-17A binding to IL-17RA); details: 0.4 nM IL-17A, 0.3 nM IL-17RA, max compound concentration 10 uM
In short: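 Steps: compound dilutions (max 10 uM, 10 points) pre-incubate with 0.4 nM IL-17A for 3 h at RT; 0.3 nM IL-17RA added for 1 h; HTRF antibody pair added for 1 h; fluorescence ratio read and percent inhibition fitted to a four-parameter logistic for IC50.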

Chain of human IL-17A / human IL-17RA (Q16552 24-155): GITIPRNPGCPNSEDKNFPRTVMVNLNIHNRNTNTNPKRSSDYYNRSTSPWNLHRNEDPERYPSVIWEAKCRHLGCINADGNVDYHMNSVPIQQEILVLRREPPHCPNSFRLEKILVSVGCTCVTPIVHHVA

SMILES	IC50 [1] [nM]	IC50 [2] [nM]
CNC(=O)C1(N2C[C@@H](C(C)C)NC2=O)Cc2ccc(NC(=O)C(NC(=O)c3ccnn3C)C3CCC(C(C)(C)C)CC3)cc2C1 (stereo partly drawn) [Example 118, N-(1-(4-(tert-butyl)cyclohexyl)-2-((2-((R)-4-isopropyl-2-oxoimidazolidin-1-yl)-2-(methylcarbamoyl)-2,3-dihydro-1H-inden-5-yl)amino)-2-oxoethyl)-1-methyl-1H-pyrazole-5-carboxamide]	581	192
Cn1nccc1C(=O)N[C@H](C(=O)Nc1ccc2c(c1)CC(C(=O)Nc1cccc(F)c1)(N1CC3(CC3)CNC1=O)C2)C1CCCCC1 (stereo partly drawn) [Example 200, N-((1S)-1-cyclohexyl-2-((2-((3-fluorophenyl)carbamoyl)-2-(6-oxo-5,7-diazaspiro[2.5]octan-5-yl)-2,3-dihydro-1H-inden-5-yl)amino)-2-oxoethyl)-1-methyl-1H-pyrazole-5-carboxamide]	107	31.2
Cc1nonc1C(=O)N[C@H](C(=O)Nc1ccc2c(c1)CC(C(O)C(F)(F)F)(N1C[C@@H](C(C)C)NC1=O)C2)C(C1CC1)C1CC1 (stereo partly drawn) [Example 238, N-((2S)-1,1-dicyclopropyl-3-((2-((R)-4-isopropyl-2-oxoimidazolidin-1-yl)-2-(2,2,2-trifluoro-1-hydroxyethyl)-2,3-dihydro-1H-inden-5-yl)amino)-3-oxopropan-2-yl)-4-methyl-1,2,5-oxadiazole-3-carboxamide]	137	222
CC(C)[C@@H]1CN(C2(c3nc4ccccc4[nH]3)Cc3ccc(NC(=O)[C@@H](NC(=O)c4ccnn4C)C4CCCCC4)cc3C2)C(=O)N1 (stereo partly drawn) [Example 169, N-((1S)-2-((2-(1H-benzo[d]imidazol-2-yl)-2-((R)-4-isopropyl-2-oxoimidazolidin-1-yl)-2,3-dihydro-1H-inden-5-yl)amino)-1-cyclohexyl-2-oxoethyl)-1-methyl-1H-pyrazole-5-carboxamide]	65.2	56.4
